Results from patent publication US20160102073A1, “2-HYDROXYMETHYL-SUBSTITUTED OREXIN RECEPTOR ANTAGONISTS” (MERCK SHARP & DOHME CORP., priority 2013, published 2016).

How the values were obtained:
[1] = molecular target: T1, human orexin-2 receptor (hOX2R) (Homo sapiens, UniProt O43614); experiment: FLIPR Ca2+ Flux Assay, CHO cells expressing hOX2R; format: cell-based; conditions: agonist 70 pM Ala-6,12 orexin-A
T1 construct: expressed in transfected cells; host or cells: Chinese hamster ovary (CHO) cells, grown under G418 selection
T1 sequence (O43614 1-444): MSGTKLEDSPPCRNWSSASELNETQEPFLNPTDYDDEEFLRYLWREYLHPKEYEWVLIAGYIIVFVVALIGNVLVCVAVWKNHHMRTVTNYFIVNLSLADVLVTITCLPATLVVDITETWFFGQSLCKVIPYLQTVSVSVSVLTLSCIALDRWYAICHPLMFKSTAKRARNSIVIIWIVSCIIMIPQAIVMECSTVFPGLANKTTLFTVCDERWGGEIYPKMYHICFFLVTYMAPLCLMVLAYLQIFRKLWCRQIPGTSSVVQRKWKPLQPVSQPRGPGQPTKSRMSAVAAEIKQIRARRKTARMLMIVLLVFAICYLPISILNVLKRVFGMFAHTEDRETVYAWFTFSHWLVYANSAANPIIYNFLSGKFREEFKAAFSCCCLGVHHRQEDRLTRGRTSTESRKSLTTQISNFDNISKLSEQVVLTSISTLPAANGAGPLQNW
Experimental: The utility of the compounds in accordance with the present invention as orexin receptor OX1R and/or OX2R antagonists may be readily determined without undue experimentation by methodology well known in the art, including the “FLIPR Ca^2+ Flux Assay” (Okumura et al., Biochem. Biophys. Res. Comm. 280:976-981, 2001). In a typical experiment the OX1 and OX2 receptor antagonistic activity of the compounds of the present invention was determined in accordance with the following experimental method. For intracellular calcium measurements, Chinese hamster ovary (CHO) cells expressing the rat orexin-1 receptor or the human orexin-2 receptor, are grown in Iscove's modified DMEM containing 2 mM L-glutamine, […], 1% hypoxanthine-thymidine supplement, 100 U/ml penicillin, 100 μg/ml streptomycin and 10% heat-inactivated fetal calf serum (FCS). The cells are seeded at 20,000 cells/well into Becton-Dickinson black 384-well clear bottom sterile plates coated with poly-D-lysine. All reagents were from GIBCO-Invitrogen Corp. The seeded plates are incubated overnight at 37° C. and 5% CO2. Ala-6,12 human orexin-A as the agonist is prepared as a 1 mM stock solution in 1% bovine serum albumin (BSA) and diluted in assay buffer (HBSS containing 20 mM HEPES, 0.1% BSA and 2.5 mM probenecid, pH7.4) for use in the assay at a final concentration of 70 pM. Test compounds are prepared as 10 mM stock solution in DMSO, then diluted in 384-well plates, first in DMSO, then assay buffer. On the day of the assay, cells are washed 3 times with 100 μl assay buffer and then incubated for 60 min (37° C., 5% CO2) in 60 μl assay buffer containing 1 μM Fluo-4AM ester, 0.02% pluronic acid, and 1% BSA. The dye loading solution is then aspirated and cells are washed 3 times with 100 μl assay buffer. 30 μl of that same buffer is left in each well. Within the Fluorescent Imaging Plate Reader (FLIPR, Molecular Devices), test compounds are added to the plate in a volume of 25 μl, incubated for 5 min and finally 25 μl of agonist is added. Fluorescence is measured for each well at 1 second intervals for 5 minutes and the height of each fluorescence peak is compared to the height of the fluorescence peak induced by 70 pM Ala-6,12 orexin-A with buffer in place of antagonist. For each antagonist, IC50 value (the concentration of compound needed to inhibit 50% of the agonist response) is determined. Alternatively, compound potency can be assessed by a radioligand binding assay (described in Bergman et. al. Bioorg. Med. Chem. Lett. 2008, 18, 1425-1430) in which the inhibition constant (Ki) is determined in membranes prepared from CHO cells expressing either the OX1 or OX2 receptor. The intrinsic orexin receptor antagonist activity of a compound which may be used in the present invention may be determined by these assays.
Chinese hamster ovary (CHO) cells expressing the human orexin-1 receptor (hOX1R) or the human orexin-2 receptor (hOX2R) were grown in Iscove's modified DMEM containing 2 mM L-glutamine, […], 1% hypoxanthine-thymidine supplement, 100 U/ml penicillin, 100 μg/ml streptomycin and 10% heat-inactivated fetal calf serum (FCS). The cells were seeded at 20,000 cells/well into Becton-Dickinson black 384-well clear bottom sterile plates coated with poly-D-lysine. All reagents were from GIBCO-Invitrogen Corp. The seeded plates were incubated overnight at 37° C. and 5% CO2. Ala-6,12 human orexin-A, used as the agonist, was prepared as a 1 mM stock solution in 1% bovine serum albumin (BSA) and diluted in assay buffer (HBSS containing 20 mM HEPES, 0.1% BSA and 2.5 mM probenecid, pH7.4) for use in the assay at a final concentration of 70 pM. Test compounds were prepared as 10 mM stock solution in DMSO, then diluted in 384-well plates, first in DMSO, then assay buffer. […]

[2] = molecular target: T2, human orexin-1 receptor (hOX1R) (Homo sapiens, UniProt O43613); experiment: FLIPR Ca2+ Flux Assay, CHO cells expressing hOX1R; format: cell-based; conditions: agonist 70 pM Ala-6,12 orexin-A
T2 construct: expressed in transfected cells; host or cells: Chinese hamster ovary (CHO) cells, grown under G418 selection
T2 sequence (O43613 1-425): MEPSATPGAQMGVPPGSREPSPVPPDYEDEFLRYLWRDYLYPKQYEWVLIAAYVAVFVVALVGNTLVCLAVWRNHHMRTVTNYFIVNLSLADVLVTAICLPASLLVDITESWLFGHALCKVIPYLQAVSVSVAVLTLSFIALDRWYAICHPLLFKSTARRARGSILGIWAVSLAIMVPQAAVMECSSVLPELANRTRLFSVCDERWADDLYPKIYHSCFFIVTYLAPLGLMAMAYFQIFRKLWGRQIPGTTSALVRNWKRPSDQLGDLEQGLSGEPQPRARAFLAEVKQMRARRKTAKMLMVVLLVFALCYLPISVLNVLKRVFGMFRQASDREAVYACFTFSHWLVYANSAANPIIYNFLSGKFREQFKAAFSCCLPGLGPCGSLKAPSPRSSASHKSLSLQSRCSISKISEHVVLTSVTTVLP
Experimental: Chinese hamster ovary (CHO) cells expressing the human orexin-1 receptor (hOX1R) or the human orexin-2 receptor (hOX2R) were grown in Iscove's modified DMEM containing 2 mM L-glutamine, […], 1% hypoxanthine-thymidine supplement, 100 U/ml penicillin, 100 μg/ml streptomycin and 10% heat-inactivated fetal calf serum (FCS). The cells were seeded at 20,000 cells/well into Becton-Dickinson black 384-well clear bottom sterile plates coated with poly-D-lysine. All reagents were from GIBCO-Invitrogen Corp. The seeded plates were incubated overnight at 37° C. and 5% CO2. Ala-6,12 human orexin-A, used as the agonist, was prepared as a 1 mM stock solution in 1% bovine serum albumin (BSA) and diluted in assay buffer (HBSS containing 20 mM HEPES, 0.1% BSA and 2.5 mM probenecid, pH7.4) for use in the assay at a final concentration of 70 pM. Test compounds were prepared as 10 mM stock solution in DMSO, then diluted in 384-well plates, first in DMSO, then assay buffer.
On the day of the assay, cells were washed 3× with 100 μl assay buffer and then incubated for 60 minutes (37° C., 5% CO2) in 60 μl assay buffer containing 1 μM Fluo-4AM ester, 0.02% pluronic acid, and 1% BSA. The dye loading solution was then aspirated and cells were washed 3× with 100 μl assay buffer. 30 μl of that same buffer was left in each well. Within the Fluorescent Imaging Plate Reader (FLIPR, Molecular Devices), test compounds were added to the plate in a volume of 25 μl, incubated for 5 minutes, and then 25 μl of agonist was added. Fluorescence was measured for each well at 1 second intervals for 5 minutes, and the height of each fluorescence peak was compared to the height of the fluorescence peak induced by 70 pM of Ala-6,12 orexin-A with buffer in place of test compound.

Question: With `CC(C)c1ccnc(O[C@@H]2CC[C@@H](C)N(C(=O)c3ccccc3-n3nccn3)C2)c1CO` [Example 43, [4-(1-methylethyl)-2-{[(3R,6R)-6-methyl-1-{[2-(2H-1,2,3-triazol-2-yl)phenyl]carbonyl}piperidin-3-yl]oxy}pyridin-3-yl]methanol] as the compound, how does the IC50 [1] read?
Answer: 0.023 µM

Question: What about the IC50 [2] of the same compound?
Answer: 0.08 µM

Question: How did the IC50 [1] turn out when `C[C@@H]1CC[C@@H](Oc2ncccc2C(C)(C)O)CN1C(=O)c1ccsc1-c1ncccn1` [Example 19, 2-[2-({(3R,6R)-6-Methyl-1-[(2-pyrimidin-2-ylthiophen-3-yl)carbonyl]piperidin-3-yl}oxy)pyridin-3-yl]propan-2-ol] was run?
Answer: 0.013 µM

Question: And the IC50 [2]?
Answer: 0.012 µM

Question: With `CCc1ccnc(O[C@@H]2CC[C@@H](C)N(C(=O)c3ccccc3-n3nccn3)C2)c1CO` [Example 40, (4-Ethyl-2-{[(3R,6R)-6-methyl-1-{[2-(2H-1,2,3-triazol-2-yl)phenyl]carbonyl}piperidin-3-yl]oxy}pyridin-3-yl)methanol] as the compound, how does the IC50 [1] read?
Answer: 0.017 µM

Question: What about the IC50 [2] of the same compound?
Answer: 0.103 µM

Question: With `C[C@@H]1CC[C@@H](Oc2ncccc2C(C)(C)O)CN1C(=O)c1ccc(F)cc1-n1nccn1` [Example 4, 2-(2-{[(3R,6R)-1-{[4-fluoro-2-(2H-1,2,3-triazol-2-yl)phenyl]carbonyl}-6-methylpiperidin-3-yl]oxy}pyridin-3-yl)propan-2-ol] as the compound, how does the IC50 [1] read?
Answer: 0.068 µM

Question: What about the IC50 [2] of the same compound?
Answer: 0.425 µM

Question: `C[C@@H]1CC[C@@H](Oc2ncccc2C(C)(C)O)CN1C(=O)c1ccccc1-c1ccccc1` [Example 8, 2-(2-{[(3R,6R)-1-(biphenyl-2-ylcarbonyl)-6-methylpiperidin-3-yl]oxy}pyridin-3-yl)propan-2-ol] was tested. Which IC50 [1] did it give?
Answer: 0.07 µM

Question: What about the IC50 [2] of the same compound?
Answer: 0.124 µM

Question: Which results are given for `C#C[C@@H](O)c1cccnc1O[C@@H]1CC[C@@H](C)N(C(=O)c2ccccc2-n2nccn2)C1` [Example 35, (1R)-1-(2-{[(3R,6R)-6-methyl-1-{[2-(2H-1,2,3-triazol-2-yl)phenyl]carbonyl}piperidin-3-yl]oxy}pyridin-3-yl)prop-2-yn-1-ol]?
Answer: IC50 [1]: 0.027 µM; IC50 [2]: 0.064 µM

Question: With `COc1ccc(C(=O)N2C[C@H](Oc3ncccc3C(C)(C)O)CC[C@H]2C)c(C2CC2)c1` [Example 15, 2-[2-({(3R,6R)-1-[(2-cyclopropyl-4-methoxyphenyl)carbonyl]-6-methylpiperidin-3-yl}oxy)pyridin-3-yl]propan-2-ol] as the compound, how does the IC50 [1] read?
Answer: 0.148 µM

Question: What about the IC50 [2] of the same compound?
Answer: 2.3 µM

Question: With `C[C@@H]1CC[C@@H](Oc2ncccc2C(C)(C)O)CN1C(=O)c1cc(F)ccc1-c1ncccn1` [Example 22, 2-[2-({(3R,6R)-1-[(5-fluoro-2-pyrimidin-2-yl-phenyl)carbonyl]-6-methylpiperidin-3-yl}oxy)pyridin-3-yl]propan-2-ol] as the compound, how does the IC50 [1] read?
Answer: 0.082 µM

Question: What about the IC50 [2] of the same compound?
Answer: 0.14 µM

Question: Which IC50 [1] does the source give for `COc1ccnc(O[C@@H]2CC[C@@H](C)N(C(=O)c3ccccc3-n3nccn3)C2)c1C(C)O` (stereo partly drawn) [Example 26, 1-(4-Methoxy-2-{[(3R,6R)-6-methyl-1-{[2-(2H-1,2,3-triazol-2-yl)phenyl]carbonyl}piperidin-3-yl]oxy}pyridin-3-yl)ethanol] here?
Answer: 0.0225 µM

Question: And the IC50 [2]?
Answer: 0.463 µM

Question: What does the source list for `C[C@@H]1CC[C@@H](Oc2ncccc2C(C)(C)O)CN1C(=O)c1ccccc1C1CCC1` [Example 9, 2-[2-({(3R,6R)-1-[(2-cyclobutylphenyl)carbonyl]-6-methylpiperidin-3-yl}oxy)pyridin-3-yl]propan-2-ol]?
Answer: IC50 [1]: 0.054 µM; IC50 [2]: 0.089 µM

Question: How did the IC50 [1] turn out when `C[C@@H]1CC[C@@H](Oc2nccc(C3CC3)c2CO)CN1C(=O)c1ccccc1-n1nccn1` [Example 42, (4-cyclopropyl-2-{[(3R,6R)-6-methyl-1-{[2-(2H-1,2,3-triazol-2-yl)phenyl]carbonyl}piperidin-3-yl]oxy}pyridin-3-yl) methanol] was run?
Answer: 0.017 µM

Question: What about the IC50 [2] of the same compound?
Answer: 0.107 µM

Question: For `C[C@@H]1CC[C@@H](Oc2ncccc2C(C)(C)O)CN1C(=O)c1cc(CF)ccc1-n1nccn1` [Example 2, 2-(2-{[(3R,6R)-1-{[5-(Fluoromethyl)-2-(2H-1,2,3-triazol-2-yl)phenyl]carbonyl}-6-methylpiperidin-3-yl]oxy}pyridin-3-yl)propan-2-ol], which IC50 [1] is on record?
Answer: 0.011 µM

Question: What about the IC50 [2] of the same compound?
Answer: 0.03 µM

Question: `C[C@@H]1CC[C@@H](Oc2ncccc2CO)CN1C(=O)c1ccccc1-n1nccn1` [Example 39, (2-{[(3R,6R)-6-Methyl-1-{[2-(2H-1,2,3-triazol-2-yl)phenyl]carbonyl}piperidin-3-yl]oxy}pyridin-3-yl)methanol] was tested. Which IC50 [1] did it give?
Answer: 0.018 µM

Question: And the IC50 [2]?
Answer: 0.925 µM

Question: `C[C@@H]1CC[C@@H](Oc2ncccc2C(C)(C)O)CN1C(=O)c1ccccc1-n1ncnn1` [Example 48, 2-(2-{[(3R,6R)-6-Methyl-1-{[2-(2H-tetrazol-2-yl)phenyl]carbonyl}piperidin-3-yl]oxy}pyridin-3-yl)propan-2-ol] was tested. Which IC50 [1] did it give?
Answer: 0.021 µM

Question: And the IC50 [2]?
Answer: 0.156 µM
